The results in this text go back to US9260417B2, “Therapeutic methods and compositions involving allosteric kinase inhibition” (AMITECH THERAPEUTIC SOLUTIONS, INC., priority 2010, dated 2016).

Experiment [1] has as its system HCT116. The experiment is described as follows: Tumor cell viability. The experiment is classed as cell-based, human. As to conditions: Homo sapiens, HCT-116; Colon HCT116, K-Ras. As to the method:
(§1) For XTT assays, cells were grown in 96-well plates overnight and all assays were conducted in growth medium will full serum and additives. Compounds were serially diluted in DMSO and then further diluted into the medium to give the appropriate concentration while minimizing precipitation associated with serial diluting in medium alone Inhibitors were added for 72 h and cell viability was quantified at 450 nm after the addition of 1 mg/ml XTT solution (Sigma-Aldrich) in phenol-red free DMEM medium containing […] (Sigma-Aldrich). Dose-response curves were plotted using GraphPad Prism software and EC50s were calculated using this program.

Experiment [2] has as its system HT29. As to the kind of experiment: Tumor cell viability. The experiment is classed as cell-based. As to conditions: Homo sapiens, HT-29; Colon HT29, B-RAF V600E. As to the method:
as §1

For experiment [3], the system named is R40P. As to the kind of experiment: Tumor cell viability. As to conditions: Pancreatic (mouse spontaneous model) R40P, K-Ras. The experiment is classed as cell-based. As to the method: as §1
Experiment [4] has as its system MCF7. As to the kind of experiment: Tumor cell viability. The experiment is classed as cell-based. As to conditions: Homo sapiens; Breast MCF7, PI3K. As to the method: as §1
For experiment [5], the target named is B-RAF/C-RAF heterodimerization (Homo sapiens (Human), UniProt P15056). As to the kind of experiment: B-RAF/C-RAF heterodimerization in HUVECs (immunoprecipitation/Western). The experiment is classed as cell-based. As to conditions: ECs stimulated with bFGF or VEGF.
Experiment [6] deals with HUVECs co-cultured with hTERT-human hepatic stellate cells. The experiment is described as follows: Stellate cell/endothelial cell co-culture tube formation assay. The experiment is classed as cell-based. As to conditions: […] 6, […] 3, 1.0 μM imatinib, 0.5 μM GW 5074. As to the method:
One representative panel from 3 independent experiments is shown. […] Scale bar=200 μm.
The stellate cells were washed in PBS and mixed with early passage HUVECs (p<5) at a ratio of 1:4 and mixed into a 3.75 mg/ml Type 1 Rat tail collagen matrix (BD Biosciences) in M-199 media. 30 μl of this mixture was seeded onto each well of a half-area 96 well plate (Corning). The collagen was allowed to polymerize for 30 min at 37° C. and […] of complete EBM-2 media was added to each well. Various inhibitors were serially diluted in DMSO and subsequently added to duplicate wells 6 h post cell seeding. […] The endothelial tubes and the stellate cells were imaged at 48 h with a 10× objective on a confocal microscope. Images were collected across five fields per well.
Stellate cell/endothelial cell tube formation assay and mouse matrigel model. This assay was performed as described in the SI Methods. The stellate cells were a gift from Dr. David Brenner and previously described (Schnabl, et al. (2002) Laboratory investigation; a journal of technical methods and pathology 82:323-333). […] The mouse matrigel model was performed as previously described (Eliceiri, et al. (1999) Molecular cell 4:915-924 5) and further details of immunohistochemistry and animal dosing can be found herein.
To validate the findings of Example 10, a co-culture angiogenesis assay was utilized to evaluate similar combinations of PDGFR and RAF inhibitors. In the assay, HUVECs are mixed with hepatic stellate cells (a pericyte found in the perisinusoidal space of the liver) in a 3D-collagen gel. The co-culture produced endothelial tubes with pericyte contacts (from the stellate cells) that can be imaged and quantified as shown in FIGS. 4B and C.

The test system of experiment [7] is Tg(fli1:EGFP) zebrafish embryos. As to the kind of experiment: Zebrafish angiogenesis model. As to conditions: for intersegmental vessel formation: treated 16-48 hpf, 5 μM imatinib, 1 μM GW 5074, alone or combined. As to the method: Embryos were treated with 1 μM 6 or SU5416, or 10 μM 3 from 20 hours post fertilization (hpf) until 48 hpf. Representative 3D reconstructions of the blood vasculature are shown for both the head and tail regions of the embryo. Designations for the major vessels in the head and tail of the zebrafish embryo at 48 hpf are available in FIG. 8A. (FIG. 3B) Disruption of lumen formation in the zebrafish during late vessel maturation. Zebrafish treated with either 1 μM 6 or 10 μM 3 from 20-48 hpf were imaged at 35 and 48 hpf. […] Shown is 3D overlap reconstruction of the GFP expressing intersegmental vessels with TUNEL-positive nuclei at 48 hpf (shown in red). Representative phase contrast views as well as quantification of intersegmental vessel volumes from FIG. 3A and FIG. 3B can be found in FIG. 8B-D, respectively. (FIG. 3C) Time course of drug addition to zebrafish. […] At 30 hpf the zebrafish embryos established early vessels with evident lumens. […] All scale bars=100 μm.
Z-stacks from laser scanning confocal microscopy are shown depicting formation of the intersegmental vessels at 48 hpf. n=6 embryos/treatment. (FIG. 4B) HUVECs were co-cultured with hTERT-human hepatic stellate cells in a 3-D collagen matrix in the presence of complete EBM-2 medium to monitor pericyte-associated endothelial tube formation. […] The endothelial tubes were stained at 24 h by adding 2 μl FITC labeled Ulex europaeus lectin (Vector labs) per well. Images were acquired 48 h post seeding of the cells. One representative panel from 3 independent experiments is shown. Green—FITC lectin labeled endothelial cells, Red—DiIC(3) labeled stellate cells. […] Scale bar=200 μm. (FIG. 4C) Tube lengths were measured using Metamorph software for each tube for all 10 fields that were acquired. The % pericyte-covered tube length was calculated from the ratio of tube length sums for the tubes with and without pericyte contact. Error bars are reported as ±SEM of two wells per group. *indicates p<0.05 compared to DMSO group.
Zebrafish studies. Transgenic Tg(fli1:EGFP) zebrafish embryos were purchased from www.zfin.org and reported elsewhere (Lawson, et al. (2002) Dev Biol 248:307-318) and maintained according to (“Zebrafish—A Practical Approach”, Oxford University Press, 2002). Compounds in DMSO stock solutions were diluted directly into the water and vessels were imaged for GFP expression using a Nikon c1-si confocal microscope. Apoptosis was measured by TUNEL staining using the Apoptag in situ Red Fluorescence Kit (Chemicon) with a protocol described previously (Stanton, et al. (2006) The Journal of biological chemistry 281:28782-28793).

For experiment [8], the system named is A549 cells. The experiment is described as follows: Cell proliferation assay (BrdU ELISA) in A549 cells. As to conditions: A549, low serum DMEM (0.5% FBS), 72 h. The experiment is classed as cell-based. As to the method: A549 cells, which endogenously express oncogenic K-RAS, were plated at 2500 cells/well of a 96-well plate in low serum DMEM (0.5% fetal bovine serum) overnight. The next morning, compounds were serially diluted in DMSO and resuspended in fresh DMEM+0.5% medium, which was added to the cells for 72 h. At this time point the cells were fixed and proliferation was quantified using an ELISA for bromodeoxyuriding incorporation (BrdU ELISA, Millipore, Inc.). BrdU incorporation occurs during S phase and is the classical method for determining cell proliferation rates. In FIG. 14B-C, BrdU incorporation is expressed as a percentage of the BrdU incorporation occurring in cells treated with 0.1% DMSO as control. A dotted line represents the growth rate of cells treated with DMSO alone. […] (FIG. 13C)

Experiment [9] has as its system XPA-1 cells. As to the kind of experiment: Cell cycle analysis of XPA-1 cells (flow cytometry). The experiment is classed as cell-based. As to conditions: 5 μM, 20 h. As to the method:
For cell cycle analysis, cells were grown in complete DMEM+10% FBS in the presence of each inhibitor and harvested after 20 h of inhibitor treatment. Cell cycle analysis was performed by flow cytometry following propidium iodide staining. The cells were harvested, fixed with ice cold methanol, treated for 45 min with 10 μg/ml of RNAse and resuspended in PBS containing 10 μg/ml of PI, and analysed by flow cytometry. […] For corresponding confocal microscopy images, cells attached to coverslips were fixed with cold methanol and permeabilized in PBS containing 0.1% triton X-100 for two minutes and blocked for 60 minutes, at room temperature with 2% BSA in PBS. Cells were stained with the DNA binding dye TOPRO-3 (Invitrogen) to label the DNA and laminB (Santa Cruz) to label the nuclear envelope. The anti-Lamin B antibody was used at a 1:100 dilution for two hours at room temperature. After washing several times with PBS, cells were stained for two hours at room temperature, with secondary antibody diluted 1:300 and co-incubated with TOPRO-3 (1:500) (Invitrogen). Samples were mounted in Vectashield hard-set mounting media (Vector Laboratories) and imaged on a Nikon Eclipse Cl confocal microscope with a 1.4 NA 60× oil-immersion lens, using minimum pinhole (30 μm). Images were captured and processed using EZ-C1 3.50 imaging software (Nikon, Inc). Scale bars, 10 μm.

B-RAF/C-RAF heterodimerization, sequence (P15056 whole entry, one chain of several): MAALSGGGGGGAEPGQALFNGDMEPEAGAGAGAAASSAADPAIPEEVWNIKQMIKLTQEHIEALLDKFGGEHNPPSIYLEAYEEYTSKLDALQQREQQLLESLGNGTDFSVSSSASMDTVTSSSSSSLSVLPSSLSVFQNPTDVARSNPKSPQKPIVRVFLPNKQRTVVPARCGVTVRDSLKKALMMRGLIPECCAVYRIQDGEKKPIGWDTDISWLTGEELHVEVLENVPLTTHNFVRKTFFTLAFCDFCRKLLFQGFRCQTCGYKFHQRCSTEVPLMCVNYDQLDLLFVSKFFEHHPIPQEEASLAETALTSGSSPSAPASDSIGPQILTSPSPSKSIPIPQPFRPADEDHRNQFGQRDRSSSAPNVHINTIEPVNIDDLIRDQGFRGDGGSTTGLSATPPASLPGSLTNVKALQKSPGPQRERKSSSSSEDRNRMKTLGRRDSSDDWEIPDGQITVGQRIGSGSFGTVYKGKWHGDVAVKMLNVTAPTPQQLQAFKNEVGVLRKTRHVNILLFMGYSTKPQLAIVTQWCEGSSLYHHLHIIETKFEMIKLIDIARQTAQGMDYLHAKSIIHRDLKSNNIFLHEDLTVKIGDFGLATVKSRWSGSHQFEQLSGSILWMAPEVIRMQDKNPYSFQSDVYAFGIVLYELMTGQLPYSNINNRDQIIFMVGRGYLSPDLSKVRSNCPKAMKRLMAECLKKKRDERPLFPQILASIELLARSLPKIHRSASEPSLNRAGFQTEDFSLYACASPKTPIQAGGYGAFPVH

With `N#CC(=C(/N)Sc1ccccc1N)/C(C#N)=C(\N)Sc1ccccc1N` [Compound U0126], the EC50 in [1] was more than 20 µM; in experiment [2] it was 4.41 µM; in experiment [3] it was 10.9 µM; in experiment [4] it was more than 20 µM. Moreover, the B-RAF/C-RAF heterodimer formation result in experiment [5] was “greatly increased”.

Turning to `O=C1Nc2ccc(I)cc2/C1=C/c1cc(Br)c(O)c(Br)c1` [GW 5074, reference compound], the “endothelial tube formation and % pericyte-covered tube length” value in [6] is “did not affect pericyte coverage or tube length”. Moreover, the intersegmental vessel formation result in experiment [7] is “do not have an effect on intersegmental vessel formation”.

As to `Oc1cc(-c2nc(-c3ccccc3)[nH]c2-c2ccncc2)ccc1Cl` [L-779,450], in experiment [8], the “cell proliferation (BrdU incorporation) versus DMSO control” value is “induce hyperproliferation”.

With `O=C(NOC[C@H](O)CO)c1ccc(F)c(F)c1Nc1ccc(I)cc1F` [PD0325901, reference compound], in experiment [9], the “cell cycle / mitotic progression” value is on record as “had no effect on mitotic progression”.

Regarding `CCCS(=O)(=O)Nc1ccc(F)c(C(=O)c2c[nH]c3ncc(Cl)cc23)c1F` [PLX 4720], in experiment [8], the “cell proliferation (BrdU incorporation) versus DMSO control” value is recorded as “induce hyperproliferation”.

In the case of `Cc1cc(C)c(C=C2C(=O)Nc3ccccc32)[nH]1` [SU5416, 3-[(2,4-dimethylpyrrol-5-yl)methylene]-2-indolinone], the “blood vessel formation in zebrafish embryos” value in [7] (treated 20-48 hpf, 1 μM 6 or SU5416, up to 10 μM 3) was “completely disrupting endothelial cell migration and neovascularization in the tail”.

As to `Cc1ccc(NC(=O)c2ccc(CN3CCN(C)CC3)cc2)cc1Nc1nccc(-c2cccnc2)n1` [imatinib, reference compound], the “endothelial tube formation and % pericyte-covered tube length” value in [6] is “did not affect endothelial tube formation”. For the same compound, the intersegmental vessel formation result in [7] was “do not have an effect on intersegmental vessel formation”.
